Where two headings read alike, the source gives them in different places. Blank lines part the entries; values can stand above or below the compound they belong to.
Experiments:
Type in all cases: cell-based
MOLM-13 cells = experiment: Cell viability assay (CellTiter-Glo) in MOLM-13 cells; conditions: MOLM-13, AML, 3 days
Description: (§1) MV4;11, RS4;11, Kasumi-1, HEL and other cells were treated with NVP-BSK805, TG101209 or selected degraders for 3 days at indicated concentrations following a 3-fold serial dilution.
(§2) HEL, RS4;11, MV4;11, Kasumi-1 and other cells were cultured at 37° C. with 5% CO2 in RPMI 1640 or DMEM Medium supplemented with 10% fetal bovine serum. Cells were authenticated using the short tandem repeat (STR) assays. Mycoplasma test results were negative.
(§3) Cells were seeded at a density of 5000 cells per well in 96-well assay plates and treated with test compounds following a 8-point or 12-point 3-fold serial dilution. Three days later, cell viability was determined using the CellTiter-Glo assay kit according to the manufacturer's instructions. The dose-response curves were determined and IC50 values were calculated using the GraphPad Prism software following a nonlinear regression (least squares fit) method.

SU-DHL-1 cells = experiment: Cell viability assay (CellTiter-Glo) in SU-DHL-1 cells; conditions: SU-DHL-1, large cell lymphoma, 3 days
Description: as §1, §2, §3

AMO-1 cells = experiment: Cell viability assay (CellTiter-Glo) in AMO-1 cells; conditions: AMO-1, Multiple Myeloma, 3 days
Description: as §1, §2, §3

Pfeiffer cells = experiment: Cell viability assay (CellTiter-Glo) in Pfeiffer cells; conditions: DLBCL, 3 days
Description: as §1, §2, §3

MOLT-4 cells = experiment: Cell viability assay (CellTiter-Glo) in MOLT-4 cells; conditions: MOLT-4, T-ALL, 3 days
Description: as §1, §2, §3

Jurkat cells = experiment: Cell viability assay (CellTiter-Glo) in Jurkat cells; conditions: T-ALL, 3 days
Description: as §1, §2, §3

CCRF-CEM cells = experiment: Cell viability assay (CellTiter-Glo) in CCRF-CEM cells; conditions: T-ALL, 3 days
Description: as §1, §2, §3

NOMO-1 cells = experiment: Cell viability assay (CellTiter-Glo) in NOMO-1 cells; conditions: NOMO-1, AML, 3 days
Description: as §1, §2, §3

RS4;11 cells = experiment: Cell viability assay (CellTiter-Glo) in RS4;11 cells; conditions: cell viability, read-out: IC50
Summary of the method: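 RS4;11 cells seeded at 5000 per well, exposed for 3 days to 8- or 12-point 3-fold serial dilutions. Viability read by CellTiter-Glo luminescence; IC50 fitted by nonlinear least-squares regression.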

HL-60 cells = experiment: Cell viability assay (CellTiter-Glo) in HL-60 cells; conditions: HL-60, APL, 3 days
Description: as §1, §2, §3

MV4;11 cells = experiment: Cell viability assay (CellTiter-Glo) in MV4;11 cells; conditions: MV4;11, AML, cell viability, 3 days
Description: as §1, §2, §3

MEG-01 cells = experiment: Cell viability assay (CellTiter-Glo) in MEG-01 cells; conditions: MEG-01, CML, 3 days
Description: as §1, §2, §3

WSU-DLCL2 cells = experiment: Cell viability assay (CellTiter-Glo) in WSU-DLCL2 cells; conditions: WSU-DLCL2, DLBCL, 3 days
Description: as §1, §2, §3

Kasumi-1 cells = experiment: Cell viability assay (CellTiter-Glo) in Kasumi-1 cells; conditions: Kasumi-1, AML, cell viability, 3 days
Description: as §1, §2, §3

HEL cells = experiment: Cell viability assay (CellTiter-Glo) in HEL cells; conditions: erythroleukemia, cell viability, 3 days
Description: as §1, §2, §3

MM.1S cells = experiment: Cell viability assay (CellTiter-Glo) in MM.1S cells; conditions: Multiple Myeloma, 3 days
Description: as §1, §2, §3

NCI-H929 cells = experiment: Cell viability assay (CellTiter-Glo) in NCI-H929 cells; conditions: NCI-H929, Multiple Myeloma, 3 days
Description: as §1, §2, §3

KM12 cells = experiment: Cell viability assay (CellTiter-Glo) in KM12 cells; conditions: KM12, colorectal carcinoma, 3 days
Description: as §1, §2, §3

IC50 (MOLM-13 cells; Homo sapiens, 72 h): 0.0482 µM
IC50 (SU-DHL-1 cells; Homo sapiens, 72 h): > 10 µM
IC50 (MOLT-4 cells; Homo sapiens, 72 h): 2.5 µM
IC50 (Jurkat cells; Homo sapiens, 72 h): 0.55 µM
IC50 (CCRF-CEM cells; Homo sapiens, 72 h): 3.96 µM
IC50 (RS4;11 cells; Homo sapiens, 72 h, RS4;11 cells, 3 days, CellTiter-Glo): 1.84 µM
IC50 (HL-60 cells; Homo sapiens, 72 h): > 10 µM
IC50 (MV4;11 cells; Homo sapiens, 72 h): 0.194 µM
IC50 (MM.1S cells; Homo sapiens, MM1.S, 72 h): 6.11 µM
IC50 (NCI-H929 cells; Homo sapiens, 72 h): > 10 µM
Compound: Cc1cnc(Nc2ccc(N3CCN(C)CC3)cc2)nc1Nc1cccc(S(=O)(=O)NC(C)(C)C)c1 [TG101209, reference compound]
IC50 (AMO-1 cells; Homo sapiens, AMO1, 72 h): 4.78 µM
IC50 (Pfeiffer cells; Homo sapiens, 72 h): > 10 µM
IC50 (NOMO-1 cells; Homo sapiens, 72 h): 1.3 µM
IC50 (MEG-01 cells; Homo sapiens, 72 h): 7.12 µM
IC50 (WSU-DLCL2 cells; Homo sapiens, WSUDLCL2, 72 h): 1.07 µM
IC50 (Kasumi-1 cells; Homo sapiens, 72 h): 0.529 µM
IC50 (HEL cells; Homo sapiens, 72 h): 1.2 µM

IC50 (MOLM-13 cells): 0.201 µM
IC50 (SU-DHL-1 cells): > 10 µM
IC50 (MOLT-4 cells): > 10 µM
IC50 (Jurkat cells): 2.52 µM
IC50 (CCRF-CEM cells): > 10 µM
IC50 (RS4;11 cells; RS4;11, B-ALL, 3 days (Table 3)): > 10 µM
IC50 (RS4;11 cells; RS4;11 cells, 3 days, CellTiter-Glo): > 10 µM
IC50 (HL-60 cells): > 10 µM
IC50 (MV4;11 cells): 0.391 µM
IC50 (MM.1S cells): > 10 µM
IC50 (NCI-H929 cells): > 10 µM
Compound: Fc1cc(-c2cccc3ncc(-c4cnn(C5CCNCC5)c4)nc23)cc(F)c1CN1CCOCC1 [NVP-BSK805, reference compound]
IC50 (AMO-1 cells): > 10 µM
IC50 (Pfeiffer cells): > 10 µM
IC50 (NOMO-1 cells): 6.28 µM
IC50 (MEG-01 cells): 8.87 µM
IC50 (WSU-DLCL2 cells): > 10 µM
IC50 (Kasumi-1 cells): 0.758 µM
IC50 (HEL cells): 1.04 µM
IC50 (KM12 cells): 2.86 µM

From patent US20230093099A1, “COMPOUNDS AND METHODS OF TREATING CANCERS” (CULLGEN (SHANGHAI), INC., priority 2019, published 2023)
